Key:
C. albicans = assay: Disk diffusion assay, C. albicans; assay type: cell-based; settings: aromatic compounds
Experimental: (§1) The following disk diffusion assays were performed with example compounds described above to assess the ability of compounds to inhibit growth of microorganism. A compound that inhibits its target enzyme may perform poorly for a number of reasons, including low solubility in water or slow rate of transport across a microbial membrane.

[1] = molecular target: T1, ASADH from Candida albicans (CalASADH) (Candida albicans, UniProt Q5ALM0); assay: Time-dependent inactivation of CalASADH (pre-incubation, residual activity); assay type: biochemical
T1 construct: His tag; made in house
T1 sequence (Q5ALM0 1-365): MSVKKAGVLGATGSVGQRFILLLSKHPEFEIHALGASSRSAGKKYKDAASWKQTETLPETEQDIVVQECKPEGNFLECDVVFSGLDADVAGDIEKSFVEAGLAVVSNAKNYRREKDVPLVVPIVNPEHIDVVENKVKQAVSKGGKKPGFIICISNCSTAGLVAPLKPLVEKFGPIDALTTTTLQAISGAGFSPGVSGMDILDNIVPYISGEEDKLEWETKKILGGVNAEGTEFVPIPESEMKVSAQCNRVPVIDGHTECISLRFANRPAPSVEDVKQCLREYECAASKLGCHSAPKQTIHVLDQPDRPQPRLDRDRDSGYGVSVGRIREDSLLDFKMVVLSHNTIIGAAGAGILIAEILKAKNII
Experimental: Aryl vinyl sulfones can be reasonably potent inhibitors of CalASADH, each inhibitor was then tested to determine if it would function as an enzyme inactivator. […] In most cases the residual enzyme activity, measured following a subsequent 20-fold dilution into an assay mixture, decreased to less than 5% of the control rate after incubation with low micromolar levels of these inactivators for 10 min or less. To determine the rate of inactivation the concentration of each vinyl sulfone in this pre-incubation mixture was then varied, centered around their initial measured Ki values. The rate of activity loss observed in each incubation reaction (kobs) was plotted against the inhibitor concentration to determine the inactivation rate (kinact) for that compound and the concentration that produces half-maximal inactivation (Ki). […] The proposed product of the reaction of the active site nucleophile (Cys-156) with this inactivator predicts key interactions of the p-nitro group with Arg-18 and Ser-187, and the protonation of the covalent intermediate by His-256. […] Reaction of this inactivator with the active site nucleophile (Cys-156) predicts keys interactions between its carboxyl group and several backbone amide nitrogens that would shift this adduct further from the active site base (His-256). […]

C. albicans cells = assay: C. albicans cell survival after exposure to inactivator; assay type: cell-based, Candida albicans; settings: 1 h exposure; for cell survival rate, in words: several concentrations, survival after 48 h
Experimental: According to some embodiments, vinyl sulfone compounds contain both polar and, in some cases, charged functional groups that would make cellular uptake more challenging. However, to test the possibility that these compounds could inhibit the growth of C. albicans, two inactivators were selected for examination. […] The cells were plated and their survival rates were measured after 48 h relative to a control growth in the absence of inactivator.

K pneumoniae = assay: Disk diffusion assay, K pneumoniae; assay type: cell-based; settings: aromatic compounds
Experimental: as §1

S. aureus = assay: Disk diffusion assay, S. aureus; assay type: cell-based; settings: aromatic compounds
Experimental: as §1

## CS(=O)(=O)/C=C/c1ccc2ccccc2n1 [2-MSV-quinoline, 2-(S-methylsulfonylvinyl)quinoline]
C. albicans
  disk diffusion, C. albicans: weak

## CS(=O)(=O)/C=C/c1ccc(C(=O)O)cc1 [4-(methylsulfonylvinyl)benzoic acid]
[1]
  ASADH inactivation, in words: very good ASADH inactivator
C. albicans cells; 25 μM, survival after 48 h relative to control
  cell survival: less than 75%
C. albicans cells
  cell survival rate, in words: some decrease in cell survival rate

## O=S(=O)(/C=C/c1ccncc1)c1ccccc1 [4-(phenylsulfonylvinyl)pyridine]
[1]
  ASADH inactivation, in words: moderate inactivator
C. albicans cells
  cell survival rate, in words: some decrease in cell survival rate

## CS(=O)(=O)/C=C/c1ccncc1 [4-MSV-pyridine, 4-(methylsulfonylvinyl)pyridine]
C. albicans
  disk diffusion, C. albicans: medium
K pneumoniae
  disk diffusion, K pneumoniae: medium
S. aureus
  disk diffusion, S. aureus: medium

From patent US20240180158A1, “COMPOUNDS HAVING SELECTIVE INACTIVATION ACTIVITY” (University of North Carolina at Wilmington, priority 2021, published 2024)
